# Laboratory results taken from patent US9254290B2, “Method for screening diabetes treating agent” (GWANGJU INSTITUTE OF SCIENCE AND TECHNOLOGY, priority 2010, dated 2016).
# “Also recorded” adds a separate entry of the source.
# Legend:
# 3T3-L1 adipocytes [1] = assay: Detection of apoptosis (Apo-TRACE staining, microplate quantification); format: cell-based, murine; conditions: 5 μM, 24 hrs
# Procedure: 3T3-L1 pre-adipocytes were cultured to confluence in 24-well plates and induced to differentiate into adipocytes. The induction of apoptosis was detected using the Apo-TRACE™ Apoptotic Cell Staining Kit (Sigma-Aldrich, SL, USA), which employs a fluorescent compound that responds to alterations in plasma membrane potential and phospholipid scrambling, which are hallmarks of apoptotic cells. Apoptotic cells were visualized by microscopy under UV illumination (Olympus IX81, Japan) equipped with MetaMorph 7.5 image capture software (Molecular Devices, CA, USA)). Images were processed with Photoshop CS4 software (Adobe Systems Incorporated, CA, USA). Apoptosis was quantified by fluorescent microplate reader analysis of cell lysate.
# 3T3-L1 adipocytes [2] = assay: Necrosis / cell death by trypan blue exclusion; format: cell-based; conditions: 24 h after treatment
# Procedure: Necrosis was detected by the ability of cells to exclude the dye, trypan blue. 3T3-L1 adipocytes were cultured to confluence in 6-well plates and treated with drug. Adipocytes were then harvested by trpsinization and resuspended in 1 mL PBS. A 50 μL aliquot was taken and stained with an equal volume of 0.4% trypan blue solution (Sigma, SL, USA). Cells that could not exclude dye were classified as necrotic and quantified using a hemocytometer.
# 3T3-L1 adipocytes [3] = assay: 6-NBDG uptake screening in 3T3-L1 adipocytes, 96-well, fluorescent microplate reader; format: cell-based, murine; conditions: for NBDG uptake in adipocytes on re-testing of purified compounds: 250 nM-20 μM, compared with insulin and zinc sulfate; for effect of GLUT inhibitors (4,6-EDG, cytochalasin B) on compound-induced NBDG uptake: with 4,6-EDG (50 mM) or cytochalasin B; for effect on insulin-stimulated 6-NBDG uptake: 3 h pre-treatment with inhibitors
# Procedure: 3T3-L1 murine fibroblasts were maintained in proliferation media, consisting of DMEM supplemented with 10% FBS, 50 units/mL penicillin and 50 μg/mL streptomycin. 3T3-L1 fibroblasts were induced to differentiate into adipocytes as follows: 48 h postconfluent cells (designated day 0) were cultured in DMEM supplemented 10% FBS, 0.5 mM 3-isobutyl-1-methyl-xanthine, 2 μg/ml dexamethasone, 1 μg/ml insulin, 50 units/mL penicillin and 50 μg/mL streptomycin for 2 days. Every 2 days thereafter, the cells were incubated with fresh DMEM supplemented with 10% FBS and 1 μg/ml insulin. 3T3-L1 adipocytes were used for experiments 8 days after the induction of differentiation.
# (§1) Three cell lines were chosen to test if NBDG can be used to detect insulin-stimulated glucose uptake in a 96 well plate culture format, which is more suitable for cell-based screening to identify novel insulin mimetic compounds. The cell lines chosen were Huh7 hepatocytes, C2C12 myoblasts and 3T3-L1 pre-adipocytes, which represent the major body tissue types that are sensitive to the action of insulin (liver, muscle and fat). 10^4 cells/well were seeded in a black, 96 well tissue culture plate (BD Falcon, NJ, USA). C2C12 myoblasts and 3T3-L1 adipocytes were induced to undergo differentiation into myotubes and adipocytes, respectively, to compare the NDBG signal in proliferating and differentiated cells. NBDG uptake was measured following treatment with 10 nM or 100 nM insulin, and 1 μM or 10 μM rosiglitazone (an insulin-sensitizing agent), using a fluorescent microplate reader (SpectraMAX GeminiXS and SoftMax Pro V5 software, Molecular Devices, CA, USA). Cells were cultured in serum-free low glucose culture media for 3 h before the addition of insulin.
# To test the NBDG-based screening system, a combinatorial chemical library of 576 triazine-based small molecules was screened at a concentration of 5 μM. The combinatorial library was provided by Professor Young-Tae Chang, Department of Chemistry, National University of Singapore.
# To test if this screening protocol could detect new insulin mimetic compounds, a combinatorial chemical library of 576 triazine-based small molecules was screened.
# VCAM-1 [4] = assay: VCAM-1 expression in HAEC exposed to hyperglycemia (Western blot); format: cell-based, human; conditions: 30 mM glucose 5 days; 24 hrs treatment with 5 μM
# Procedure: (§2) HAEC were exposed to hyperglycemia (30 mM glucose) for days and treated with 5 μM compounds AP-III-a4 or AP-I-h7 or 100 nM insulin for 3 hrs prior to addition of THP-1 monocytes. […] Data is representative of three independent experiments. 5 mM glucose=normoglycemia; 30 mM glucose=hyperglycemia (5 days treatment); AP-III-a4=hyperglycemia (5 days treatment) and 24 hrs treatment with 5 μM AP-III-a4; AP-I-h7=hyperglycemia (5 days treatment) and 24 hrs treatment with […]; MLB=hyperglycemia (5 days treatment) and 48 hrs treatment with 50 μM magnesium lithospermate B.
# Human aortic endothelial cells were supplied by Cambrex (NJ, USA) and cultured in EBM-2 growth media supplemented with the EGM-2 bullet kit. THP-1 human monocytic cells were cultured in RPMI-1640 medium supplemented with […] 2-mercaptoethanol, 10% fetal bovine serum and antibiotics. Cells were cultured in growth media containing 5 mM glucose for the normoglycemia condition or 30 mM glucose for the hyperglycemia condition.
# Proteins were separated by 10% SDS-PAGE and transferred onto […] nitrocellulose (Bio-Rad, CA, USA). Densitometry was carried out using TINA 2.10e software (Catholic University Medical College (GmBH), Germany).
# [5] = system: insulin resistant 3T3-L1 adipocytes; assay: NBDG uptake in adipocytes rendered insulin resistant with TNF-α; format: cell-based, murine
# From the text: (§3) Error=SD. *=P<0.05 compared to 3T3-L1 adipocytes in the same treatment group. […] Data is representative of three independent experiments.
# [6] = system: 3T3-L1 adipocytes and pre-adipocytes; assay: Fluorescent microscope analysis of NBDG uptake in mixed cultures of adipocytes and pre-adipocytes; format: cell-based, murine; conditions: 10 μM compound; adipocytes vs pre-adipocytes (fibroblast-like)
# From the text: as §3
# 3T3-L1 adipocytes [7] = assay: Epinephrine-stimulated free fatty acid release assay; format: cell-based, murine; conditions: for inhibition of epinephrine-stimulated free fatty acid release: 5 μM compound, 10 μM epinephrine
# Procedure: Epinephrine-stimulated free fatty acid (FFA) release from adipocytes was measured using the Free Fatty Acid Quantification Kit (Biovision, CA, USA), following the method previously described^13. Confluent 3T3-L1 adipocytes in a 24 well plate were cultured for 3 h in serum-free culture media. Adipocytes were then treated with 10 μM epinephrine dissolved in saline to induce FFA […] release. Drug of interest was added 10 min before the addition of epinephrine. Cell lysate was collected and 50 μL of the organic phase was used for assay. Palmitic acid was used to generate the standard curve.
# [8] = system: human aortic endothelial cells (HAEC); assay: Monocyte-endothelial cell adhesion assay (THP-1 monocytes, hyperglycemia); format: cell-based; conditions: 30 mM glucose; 5 μM compound for 3 hrs before THP-1 monocytes
# Procedure: as §2
# Human aortic endothelial cells were supplied by Cambrex (NJ, USA) and cultured in EBM-2 growth media supplemented with the EGM-2 bullet kit. […]
# The adhesion of mouse inflammatory peritoneal (IP) exudate macrophages to endothelial cell monlayers was carried out as previously described.^14 Briefly, endothelial cells were cultured to confluence in 6-well culture plates and treated with drug with or without high glucose (30 mM for 48 h) culture media. […] The unbound cells were washed three times with serum-free RPMI-1640 medium, and the total number of adherent cells was counted in four randomly selected optical fields per well (100× magnification; Olympus microscope CKX41, Japan; microscopic images were captured with a DigiEye 330 digital camera (Dewinter, India) and Biowizard 4.3 software (Dewinter, India)). […]
# 3T3-L1 adipocytes [9] = assay: Commercial enzyme-based glucose content assay (Biovision); format: cell-based, murine; conditions: tested in triplicate
# Procedure: For comparison and validation of our new screening based on NBDG uptake, we used a commercial, enzyme-based glucose assay provided by Biovision Inc., CA, USA. 3T3-L1 adipocytes were seeded at 5×10^4 cells/well in a 96-well culture plate. 24 h later, culture media was changed and adipocytes were cultured in serum-free low glucose DMEM for 3 h prior to drug treatment. Cells were lysed with 100 μL Cell Lytic M (Sigma-Aldrich, SL, USA) and 50 μL lysate was used for assay.
# VCAM-1 [10] = conditions: cited from earlier work
# [11] = system: human aortic endothelial cells (HAEC); conditions: cited from earlier work
# 3T3-L1 adipocytes [12] = assay: 2-NBDG uptake in insulin-responsive cell lines, 96-well; format: cell-based, murine; conditions: 10 nM or 100 nM insulin, 30 min; compared to Huh7, C2C12 myoblasts/myotubes, 3T3-L1 pre-adipocytes
# Procedure: as §1
compound,measurement,setting,value
CCCCNc1nc(Nc2ccc(CC(=O)NCCOCCOCCN)cc2)nc(N2CCCCC2)n1 [AP-IV-e3],induction of apoptosis,3T3-L1 adipocytes [1],induced apoptosis
same,induction of cell death (trypan blue exclusion),3T3-L1 adipocytes [2],induced cell death
same,NBDG uptake in adipocytes on re-testing of purified compounds,3T3-L1 adipocytes [3],can increase NBDG uptake; also recorded: promote NBDG uptake in adipocytes
same,"effect of GLUT inhibitors (4,6-EDG, cytochalasin B) on compound-induced NBDG uptake",3T3-L1 adipocytes [3],sensitive to exo- and endofacial inhibitors of GLUT
CCCCNc1nc(NCCc2ccccc2)nc(Nc2ccc(CC(=O)NCCOCCOCCN)cc2)n1 [AP-I-h7],VCAM-1 expression / upregulation in hyperglycemic conditions,VCAM-1 [4],decreased VCAM-1 upregulation; also recorded: reduced the expression of VCAM-1
same,sensitivity of compound-induced NBDG uptake to insulin resistance,[5],sensitive to the induction of insulin resistance
same,cell-type preference of NBDG uptake,[6],preferentially taken up in the adipocytes; also recorded: preferentially occurs in adipocytes rather than fibroblasts
same,induction of apoptosis,3T3-L1 adipocytes [1],did not induce apoptosis
same,concentration required to produce insulin mimetic activity in adipocytes,3T3-L1 adipocytes [7],5 µM
same,inhibition of epinephrine-stimulated free fatty acid release,3T3-L1 adipocytes [7],could inhibit epinephrine-stimulated free fatty acid release; also recorded: inhibit 10 μM epinephrine-mediated FFA release
same,monocyte adhesion in hyperglycemic conditions,[8],decreased monocyte adhesion; also recorded: reduced monocyte adhesion
same,NBDG uptake in adipocytes on re-testing of purified compounds,3T3-L1 adipocytes [3],can increase NBDG uptake; also recorded: promote NBDG uptake in adipocytes
same,"effect of GLUT inhibitors (4,6-EDG, cytochalasin B) on compound-induced NBDG uptake",3T3-L1 adipocytes [3],sensitive to exo- and endofacial inhibitors of GLUT
same,cellular glucose content,3T3-L1 adipocytes [9],induced an increase in cellular glucose content
"CC1OC[C@H]2O[C@H](O)[C@H](O)[C@@H](O)[C@@H]2O1 (stereo partly drawn) [4,6-EDG, 4,6-ethylidine-D-glucose, reference compound]",effect on insulin-stimulated 6-NBDG uptake,3T3-L1 adipocytes [3]; 100 nM insulin,reduced insulin-stimulated uptake of 6-NBDG; also recorded: inhibited
"O=S(=O)([O-])[O-].[Zn+2] [zinc sulfate, reference compound]","effect of GLUT inhibitors (4,6-EDG, cytochalasin B) on compound-induced NBDG uptake",3T3-L1 adipocytes [3],reduced NBDG uptake
"C=C1[C@@H](C)[C@H]2[C@H](Cc3ccccc3)NC(=O)[C@]23OC(=O)/C=C/[C@H](O)CCC[C@@H](C)C/C=C/[C@H]3[C@@H]1O [cytochalasin B, reference compound]",effect on insulin-stimulated 6-NBDG uptake,3T3-L1 adipocytes [3]; 100 nM insulin,reduced insulin-stimulated uptake of 6-NBDG; also recorded: inhibited
insulin: Insulin from bovine pancreas,effect on adhesion molecule expression in endothelial cells (literature),VCAM-1 [10],not to inhibit adhesion molecule expression
same,effect on monocyte-endothelial adhesion (literature),[11],no inhibitory effect on monocyte-endothelial adhesion
same,2-NBDG uptake after insulin treatment,3T3-L1 adipocytes [12],largest increase in 2-NBDG uptake
same,sensitivity of 6-NBDG uptake in adipocytes to the agent,"3T3-L1 adipocytes [3]; 1 μM rosiglitazone, 100 nM insulin",sensitive
same,cellular glucose content,3T3-L1 adipocytes [9],induced an increase in cellular glucose content
NCCOCCOCCNC(=O)Cc1ccc(Nc2nc(NCC3CCCCC3)nc(N3CCCCC3)n2)cc1 [AP-IV-e4],induction of apoptosis,3T3-L1 adipocytes [1],induced apoptosis
same,induction of cell death (trypan blue exclusion),3T3-L1 adipocytes [2],induced cell death
same,NBDG uptake in adipocytes on re-testing of purified compounds,3T3-L1 adipocytes [3],can increase NBDG uptake; also recorded: promote NBDG uptake in adipocytes
same,"effect of GLUT inhibitors (4,6-EDG, cytochalasin B) on compound-induced NBDG uptake",3T3-L1 adipocytes [3],sensitive to exo- and endofacial inhibitors of GLUT
NCCOCCOCCNC(=O)Cc1ccc(Nc2nc(NCc3ccc(F)cc3)nc(NCC3CCCCC3)n2)cc1 [AP-III-a4],VCAM-1 expression / upregulation in hyperglycemic conditions,VCAM-1 [4],decreased VCAM-1 upregulation; also recorded: reduced the expression of VCAM-1
same,sensitivity of compound-induced NBDG uptake to insulin resistance,[5],sensitive to the induction of insulin resistance
same,cell-type preference of NBDG uptake,[6],preferentially taken up in the adipocytes; also recorded: preferentially occurs in adipocytes rather than fibroblasts
same,induction of apoptosis,3T3-L1 adipocytes [1],did not induce apoptosis
same,concentration required to produce insulin mimetic activity in adipocytes,3T3-L1 adipocytes [7],5 µM
same,inhibition of epinephrine-stimulated free fatty acid release,3T3-L1 adipocytes [7],could inhibit epinephrine-stimulated free fatty acid release; also recorded: inhibit 10 μM epinephrine-mediated FFA release
same,monocyte adhesion in hyperglycemic conditions,[8],decreased monocyte adhesion; also recorded: reduced monocyte adhesion
same,NBDG uptake in adipocytes on re-testing of purified compounds,3T3-L1 adipocytes [3],can increase NBDG uptake; also recorded: promote NBDG uptake in adipocytes
same,"effect of GLUT inhibitors (4,6-EDG, cytochalasin B) on compound-induced NBDG uptake",3T3-L1 adipocytes [3],sensitive to exo- and endofacial inhibitors of GLUT
same,cellular glucose content,3T3-L1 adipocytes [9],induced an increase in cellular glucose content
